Data reported in article PMC6384730, “Systematic Identification of Thiosemicarbazides for Inhibition of Toxoplasma gondii Growth In Vitro” (Molecules, 2019).
In brackets after ≈: the same amount, converted by molar mass. Where two headings read alike, the source gives them in different places.

Key:
T. gondii RH tachyzoites = experiment: Influence on T. gondii proliferation ([3H]uracil incorporation) in infected Vero cells; format: cell-based, Toxoplasma gondii; conditions: for IC50: Toxoplasma gondii, Vero
Method: Vero cell line (African green monkey kidney) (ATCC® CCL-81™) were maintained in EMEM (EMEM/10%HIFBS/P/S) (Eagle’s Minimum Essential Medium—ATCC® 30-2003™) culture medium supplemented with 10% HIFBS (Heat-Inactivated (1 h in 56°C) Fetal Bovine Serum—ATCC), 100 U/mL penicillin, 100 μg/mL streptomycin. The cell line was trypsinized (using Trypsin-EDTA Solution, 1X ATCC® 30-2101™) twice a week, and seeded at density 1 × 10^6 per T25 cell culture flask (Falcon), and incubated for 24–48 h at 37 °C and 5 CO2 to achieve a confluent monolayer. The highly virulent RH strain of Toxoplasma gondii, haplogroup I (ATCC® PRA-310™) were maintained as tachyzoites according to the ATCC product sheet, in DMEM (Dulbecco’s Modified Eagle’s Medium—ATCC® 30-2002™) (DMEM/3%HIFBS/P/S—parasite culture medium) under condition 37 °C and 5 CO2 and passage twice per week.
The Vero cells were seeded on 96-well plates (1 × 10^5 cells/100 µL/well) in EMEM/10%HIFBS/P/S. After 24 h of incubation medium was removed and then T. gondii RH tachyzoites were added to the cell monolayers at density 1 × 10^5 cells/100 µL/well in DMEM/3%HIFBS/P/S. One hour later different compounds and sulfadiazine dilutions (100 µL/well) in parasite culture medium were added to the cell monolayers with T. gondii. After subsequent 24 h of incubation 1 µCi/well [5,6-^3H] uracil (Moravek Biochemicals Inc., Brea, CA, USA) was applied to each microculture for further 72 h. The amount of the isotope incorporated into the parasite nucleic acid pool, corresponding to the parasite growth, was measured by liquid scintillation counting using 1450 Microbeta Plus Liquid Scintillation Counter (Wallac Oy, Turku, Finland). The results were expressed as counts per minute (CPM) and transformed to the percentage of viability compared to untreated cells. All experiments were performed in triplicate.

L929 cells = experiment: MTT cell viability (cytotoxicity) assay on L929 cells; format: cell-based, mouse; conditions: L929 cells, 24 h exposure
Method: (§1) Cells were trypsinized twice a week, and seeded at density 1 × 10^6 per T25 cell culture flask, and incubated for 24-48 h at 37 °C and 10% CO2 to achieve a confluent monolayer. […] The final concentration of DMSO in compounds dilutions was not higher than 1.00%. […] Dilution of the all compounds 2-22 and drug were freshly prepared before the cells were exposed. […] The MTT assay was used according to international standards: ISO 10993-5:2009(E), Biological evaluation of medical devices, Part 5: Tests for in vitro cytotoxicity. […] Afterward, the culture medium in the plates was replaced by 100 μL of compounds and sulfadiazine suspension and the cells were exposed for 24 h. Then, 1 mg/mL of MTT solution in RPMI 1640 without phenol red was prepared and 50 μL of the solution was added to each well and incubated at 37 °C, 10% CO2 for 2 h. Mitochondrial dehydrogenases of viable cells reduced the yellowish water-soluble MTT to water-insoluble formazan crystals, which were solubilized with dimethyl sulfoxide (DMSO). The cell culture medium was aspirated cautiously, after which 150 μL DMSO was added to each well, the plates were gently mixed, then 25 μL 0.1 M glycine buffer (pH = 10.5) (Sigma) was added. Optical density was read on the ELISA reader (Multiskan EX, Labsystems, Vienna, VA, USA) at 570 nm. The results were expressed as the percentage of viability compared to untreated cells. All experiments were performed in triplicate. Moreover, cells were treated with 4.0-0.03% concentration of DMSO as a compounds solvent (data not shown).

[1] = as above; format: cell-based, mouse; conditions: mouse, L929 mouse fibroblast cells, 24 h, % of untreated cells; for viability at 24 h, 62.5 µg/mL: 62.50 µg/mL
Method: as §1

[2] = RH tachyzoites in Vero cells, [3H]uracil incorporation, highest concentration tested 125 µg/mL, read-out: IC50 (50% inhibition of T. gondii proliferation in vitro)

With `Cc1nc[nH]c1C(=O)NNC(=S)Nc1cccc([N+](=O)[O-])c1` [Compound 3, 1-(4-Methylimidazol-5-oyl)-4-(3-nitrophenyl)thiosemicarbazide] the IC50 (T. gondii RH tachyzoites; [2]) was 14.8 µg/mL (≈ 46.1 µM), the “CC30 (concentration required for 30% cells proliferation inhibition)” value (L929 cells) was 141.25 µg/mL and the viability at 24 h, 3.91 µg/mL [1] was 95.4%. The viability at 24 h, 7.81 µg/mL [1] was 94.6%, the viability at 24 h, 15.63 µg/mL [1] was 94.6% and the viability at 24 h, 31.25 µg/mL [1] was 89.4%. It also gave a viability at 24 h, 62.5 µg/mL [1] of 79%, a viability at 24 h, 125 µg/mL [1] of 72.4% and a viability at 24 h, 250 µg/mL [1] of 55.8%. For the same molecule, the viability at 24 h, 500 µg/mL [1] was 15.3%.

With `COc1ccccc1NC(=S)NNC(=O)c1[nH]cnc1C` [Compound 5, 4-(2-Methoxyphenyl)-1-(4-methylimidazol-5-oyl)thiosemicarbazide] the IC50 (T. gondii RH tachyzoites; [2]) was 33.1 µg/mL (≈ 108 µM), the “CC30 (concentration required for 30% cells proliferation inhibition)” value (L929 cells) was 138.04 µg/mL and the viability at 24 h, 3.91 µg/mL [1] was 95.8%. It also gave a viability at 24 h, 7.81 µg/mL [1] of 91.9%, a viability at 24 h, 15.63 µg/mL [1] of 89% and a viability at 24 h, 31.25 µg/mL [1] of 86.5%. For the same molecule, the viability at 24 h, 62.5 µg/mL [1] was 78.5%, the viability at 24 h, 125 µg/mL [1] was 69.7% and the viability at 24 h, 250 µg/mL [1] was 63.1%. It also gave a viability at 24 h, 500 µg/mL [1] of 53.6%.

With `COc1ccc(NC(=S)NNC(=O)c2nc[nH]c2C)cc1` [Compound 7] the IC50 (T. gondii RH tachyzoites; [2]) was 114 µg/mL (≈ 373 µM), the “CC30 (concentration required for 30% cells proliferation inhibition)” value (L929 cells) was 389.05 µg/mL and the viability at 24 h, 3.91 µg/mL [1] was 95.1%. The viability at 24 h, 7.81 µg/mL [1] was 90.3%, the viability at 24 h, 15.63 µg/mL [1] was 89.5% and the viability at 24 h, 31.25 µg/mL [1] was 87.7%. It also gave a viability at 24 h, 62.5 µg/mL [1] of 85.8%, a viability at 24 h, 125 µg/mL [1] of 84% and a viability at 24 h, 250 µg/mL [1] of 70.7%. It also gave a viability at 24 h, 500 µg/mL [1] of 68.6%.

In the case of `Cc1nc[nH]c1C(=O)NNC(=S)NCc1ccccc1` [Compound 8, 4-Benzyl-1-(4-methylimidazol-5-oyl)thiosemicarbazide], the IC50 (T. gondii RH tachyzoites; IC50 greater than 125 µg/mL (highest concentration tested), calculated by extrapolation of the curves (GraphPad Prism), read-out: IC50 (50% inhibition of T. gondii proliferation in vitro), extrapolated) is reported as about 150 µg/mL (≈ 517 µM), the “CC30 (concentration required for 30% cells proliferation inhibition)” value (L929 cells) is reported as 123.03 µg/mL and the viability at 24 h, 3.91 µg/mL [1] is reported as 101%. The viability at 24 h, 7.81 µg/mL [1] was 99.4%, the viability at 24 h, 15.63 µg/mL [1] was 96.5% and the viability at 24 h, 31.25 µg/mL [1] was 92%. For the same molecule, the viability at 24 h, 62.5 µg/mL [1] was 88.8%, the viability at 24 h, 125 µg/mL [1] was 64.9% and the viability at 24 h, 250 µg/mL [1] was 53.3%. It also gave a viability at 24 h, 500 µg/mL [1] of 46.6%.

With `CC(=O)c1cccc(NC(=S)NNC(=O)c2[nH]cnc2C)c1` [Compound 12, 4-(3-Acetylphenyl)-1-(4-methylimidazol-5-oyl)thiosemicarbazide] the IC50 (T. gondii RH tachyzoites; [2]) was 95.5 µg/mL (≈ 301 µM), the “CC30 (concentration required for 30% cells proliferation inhibition)” value (L929 cells) was 206.54 µg/mL and the viability at 24 h, 3.91 µg/mL [1] was 106%. The viability at 24 h, 7.81 µg/mL [1] was 104%, the viability at 24 h, 15.63 µg/mL [1] was 103% and the viability at 24 h, 31.25 µg/mL [1] was 101%. The viability at 24 h, 62.5 µg/mL [1] was 99.3%, the viability at 24 h, 125 µg/mL [1] was 96.7% and the viability at 24 h, 250 µg/mL [1] was 76.8%. The viability at 24 h, 500 µg/mL [1] was 56.2%.

In the case of `Cc1nc[nH]c1C(=O)NNC(=S)Nc1cc(F)ccc1F` [Compound 15, 4-(2,5-Difluorophenyl)-1-(4-methylimidazol-5-oyl)thiosemicarbazide], the “IC50 (50% inhibition of T. gondii proliferation in vitro)” value (T. gondii RH tachyzoites; RH tachyzoites in Vero cells, [3H]uracil incorporation, highest concentration tested 125 µg/mL) is reported as 53.70 µg/mL, the IC50 (T. gondii RH tachyzoites; [2]) is reported as 53.1 µg/mL (≈ 170 µM) and the “CC30 (concentration required for 30% cells proliferation inhibition)” value (L929 cells) is reported as 158.49 µg/mL. For the same molecule, the viability at 24 h, 3.91 µg/mL [1] was 105%, the viability at 24 h, 7.81 µg/mL [1] was 102% and the viability at 24 h, 15.63 µg/mL [1] was 101%. For the same molecule, the viability at 24 h, 31.25 µg/mL [1] was 96.2%, the viability at 24 h, 62.5 µg/mL [1] was 84.3% and the viability at 24 h, 125 µg/mL [1] was 74.8%. For the same molecule, the viability at 24 h, 250 µg/mL [1] was 65.2% and the viability at 24 h, 500 µg/mL [1] was 51.2%.

With `Cc1ccc(NC(=S)NNC(=O)c2[nH]cnc2C)cc1` [Compound 18] the IC50 (T. gondii RH tachyzoites; [2]) was about 57.6 µg/mL (≈ 199 µM), the “CC30 (concentration required for 30% cells proliferation inhibition)” value (L929 cells) was 34.67 µg/mL and the viability at 24 h, 3.91 µg/mL [1] was 99.1%. The viability at 24 h, 7.81 µg/mL [1] was 91.7%, the viability at 24 h, 15.63 µg/mL [1] was 82% and the viability at 24 h, 31.25 µg/mL [1] was 69%. For the same molecule, the viability at 24 h, 62.5 µg/mL [1] was 64.6%, the viability at 24 h, 125 µg/mL [1] was 63.7% and the viability at 24 h, 250 µg/mL [1] was 60.4%. For the same molecule, the viability at 24 h, 500 µg/mL [1] was 53%.
